Results on seven molecules are retold here after ChEMBL document CHEMBL1201862, “PubChem BioAssay data set” (2004).

Molecules are shown by their SMILES.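 Five concentrations, 48 hours, 96-well plates. GI50 is the concentration that inhibits growth by half.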 Activity calls are given as the source filed them. Cut-off read from the data, not from the text of the source: active = GI50 up to about 1.1 µM and inactive = higher.

Some test systems named below: A498; A549; BT-549; COLO 205; DU-145; HCC 2998; HOP-62; HT-29; Hs-578T; K562; KM12; LOX IMVI; MDA-MB-231; MDA-MB-435; Malme-3M; NCI-H460; SF-268; SK-MEL-28; SR; UACC-62.
Holding throughout (experiment): growth of human tumour cells (NCI), 48 h

For the molecule `COc1ccc(N2C(=O)C(C)SC2c2cc3cc(Br)ccc3nc2Cl)cc1` (stereo not given), the GI50 in the assay with A498 is 46.8 µM (inactive); in the assay with A549 it was 12.4 µM (inactive); in the assay with BT-549, 24.9 µM (inactive); with COLO 205, 35.5 µM (inactive); in the assay with DU-145 it was 57.3 µM (inactive); in the assay with HCC 2998, 33.3 µM (inactive). Further, the GI50 with HOP-62 is 36.2 µM (inactive); in the assay with HT-29, 32.4 µM (inactive); in the assay with Hs-578T it was 38.5 µM (inactive); in the assay with K562, 31.3 µM (inactive); in the assay on KM12, 30.8 µM (inactive); with LOX IMVI it was 33 µM (inactive). Also, the GI50 is 31.6 µM (inactive) in the assay with MDA-MB-231; 19.7 µM (inactive) in the assay on MDA-MB-435; 82.4 µM (inactive) in the assay with Malme-3M; 30.9 µM (inactive) in the assay on NCI-H460; 38.3 µM (inactive) in the assay on SF-268; 38.1 µM (inactive) with SK-MEL-28. Besides, the GI50 in the assay on SR is 18.1 µM (inactive); with UACC-62, 26.2 µM (inactive).

As to `CN(Nc1cc(=O)[nH]c(=O)[nH]1)c1ccccc1`, the GI50 with A498, with A549, in the assay on BT-549, in the assay on COLO 205, in the assay on DU-145 and in the assay on HCC 2998 was > 100 µM (inactive) each time. In addition, the GI50 in the assay with HOP-62 is > 100 µM (inactive); with HT-29 it was > 100 µM (inactive); in the assay with Hs-578T, 52 µM (inactive); with K562, > 100 µM (inactive); with KM12, > 100 µM (inactive); in the assay on LOX IMVI it was > 100 µM (inactive). The GI50 with MDA-MB-231, in the assay on MDA-MB-435, with Malme-3M, with NCI-H460, in the assay with SF-268 and in the assay with SK-MEL-28 was > 100 µM (inactive) each time. For the same molecule, the GI50 with SR and in the assay on UACC-62 was > 100 µM (inactive) throughout.

Regarding `Cc1cc(O)c2c(c1)C(=O)C(c1c(C)cc3c(c1O)C(=O)C1OC1C3=O)=CC2=O` (stereo not given), the GI50 was 6.4 µM (inactive) with A498; 17.7 µM (inactive) in the assay with A549; 2.4 µM (inactive) in the assay with BT-549; 0.561 µM (active) in the assay on COLO 205; 6.7 µM (inactive) with DU-145; 5.93 µM (inactive) in the assay on HCC 2998. Also, the GI50 is 13.1 µM (inactive) in the assay with HOP-62; 3.36 µM (inactive) in the assay with HT-29; 4.16 µM (inactive) in the assay on Hs-578T; 0.339 µM (active) in the assay on K562; 13.7 µM (inactive) in the assay on KM12; 2.02 µM (inactive) in the assay with LOX IMVI. Besides, the GI50 in the assay with MDA-MB-231 was 2.03 µM (inactive); in the assay on MDA-MB-435, 2.54 µM (inactive); in the assay on Malme-3M, 1.73 µM (inactive); in the assay with NCI-H460 it was 7.87 µM (inactive); with SF-268, 7.24 µM (inactive); with SK-MEL-28, 1.94 µM (inactive). Further, the GI50 in the assay with SR is 0.327 µM (active); with UACC-62 it was 2.04 µM (inactive).

Turning to `S=c1sc2nc(Cl)nc(Cl)c2s1`, the GI50 in the assay with A498 was 18 µM (inactive); with A549, 19 µM (inactive); in the assay with BT-549, 8.87 µM (inactive); in the assay with COLO 205 it was 7.18 µM (inactive); with DU-145 it was 16 µM (inactive); in the assay on HCC 2998, 15.3 µM (inactive). The GI50 with HOP-62 was 19.9 µM (inactive); in the assay with HT-29 it was 8.24 µM (inactive); in the assay with Hs-578T, 24 µM (inactive); in the assay with K562 it was 4.24 µM (inactive); in the assay with KM12 it was 7.85 µM (inactive); with LOX IMVI, 9.14 µM (inactive). In addition, the GI50 in the assay on MDA-MB-231 is 9.02 µM (inactive); in the assay on MDA-MB-435, 7.94 µM (inactive); with Malme-3M it was 8.83 µM (inactive); in the assay with NCI-H460 it was 14.2 µM (inactive); in the assay with SF-268, 14.8 µM (inactive); in the assay on SK-MEL-28, 16.1 µM (inactive). Further, the GI50 in the assay on SR is 1.04 µM (active); with UACC-62, 13 µM (inactive).

As to `CC1OC(OC2C(O[C@@H]3C[C@@H]4CC[C@@H]5[C@H](CC[C@]6(C)C7C(C[C@@H]56)O[C@]5(CC[C@@H](C)CO5)[C@H]7C)[C@@]4(C)C[C@H]3O)OC(CO)C(O)C2O)C(O)C(O)C1O` (stereo not given in full), the GI50 with A498 was 2.3 µM (inactive); in the assay with A549, 1.86 µM (inactive); with BT-549, 1.93 µM (inactive); with COLO 205, 1.85 µM (inactive); in the assay on DU-145, 1.84 µM (inactive); in the assay on HCC 2998 it was 1.82 µM (inactive). Besides, the GI50 was 2 µM (inactive) in the assay on HOP-62; 1.62 µM (inactive) with HT-29; 2.54 µM (inactive) with Hs-578T; 1.89 µM (inactive) in the assay on K562; 2.32 µM (inactive) with KM12; 1.78 µM (inactive) in the assay with LOX IMVI. The GI50 with MDA-MB-231 is 1.78 µM (inactive); in the assay on MDA-MB-435, 1.8 µM (inactive); in the assay on Malme-3M, 1.82 µM (inactive); in the assay with NCI-H460, 1.92 µM (inactive); with SF-268, 1.91 µM (inactive); in the assay with SK-MEL-28 it was 1.85 µM (inactive). The GI50 is 2.16 µM (inactive) in the assay with SR and 1.74 µM (inactive) with UACC-62.

Consider `O=C(N/N=C/c1ccc2c(c1)OCO2)Nc1ccccc1Cl`, for which the GI50 is 1.95 µM (inactive) in the assay on A498; 3.33 µM (inactive) in the assay on A549; 1.85 µM (inactive) with BT-549; 0.957 µM (active) with COLO 205; 2.02 µM (inactive) with DU-145; 0.361 µM (active) in the assay with HCC 2998. Moreover, the GI50 with HOP-62 was 2.61 µM (inactive); with HT-29, 0.8 µM (active); with Hs-578T, 1.66 µM (inactive); in the assay with K562, 0.327 µM (active); in the assay with KM12, 0.598 µM (active); with LOX IMVI, 2.95 µM (inactive). Also, the GI50 was 4.7 µM (inactive) in the assay with MDA-MB-231; 0.171 µM (active) in the assay on MDA-MB-435; 0.946 µM (active) with Malme-3M; 0.65 µM (active) in the assay on NCI-H460; 3.76 µM (inactive) with SF-268; 9.95 µM (inactive) in the assay on SK-MEL-28. Also, the GI50 is 0.22 µM (active) in the assay on SR and 0.762 µM (active) in the assay on UACC-62.

Consider `COC(=O)CNC(=O)CCC(C)[C@H]1CCC2C3C(C[C@H](OC(C)=O)[C@@]21C)[C@@]1(C)CCC2(C[C@H]1C[C@H]3OC(C)=O)OOC1(CCCCC1)OO2` (stereo not given in full), for which the GI50 in the assay on A498 is 17.2 µM (inactive); in the assay with A549 it was 1.72 µM (inactive); in the assay with BT-549, 1.69 µM (inactive); with COLO 205, 1.91 µM (inactive); in the assay on DU-145 it was 2.34 µM (inactive); with HCC 2998 it was 2 µM (inactive). In addition, the GI50 in the assay with HOP-62 is 0.579 µM (active); with HT-29 it was 2.69 µM (inactive); with Hs-578T it was 2.72 µM (inactive); in the assay with K562, 3.14 µM (inactive); in the assay on KM12 it was 2.01 µM (inactive); in the assay with LOX IMVI it was 2.12 µM (inactive). The GI50 in the assay with MDA-MB-231 was 1.64 µM (inactive); in the assay with MDA-MB-435 it was 2.07 µM (inactive); in the assay on Malme-3M, 3.37 µM (inactive); with NCI-H460 it was 1.76 µM (inactive); in the assay with SF-268, 1.75 µM (inactive); in the assay on SK-MEL-28 it was 9.29 µM (inactive). Besides, the GI50 was 1.24 µM (inactive) in the assay with SR and 9.12 µM (inactive) in the assay on UACC-62.
